Reference: PMC2764847, “Dual Localized AtHscB Involved in Iron Sulfur Protein Biogenesis in Arabidopsis” (PLoS ONE, 2009)

Molecular target: T1, AtHscA1 (Arabidopsis thaliana, UniProt Q8GUM2)
T1 construct: gene HSP70-9
T1 sequence (Q8GUM2 47-682): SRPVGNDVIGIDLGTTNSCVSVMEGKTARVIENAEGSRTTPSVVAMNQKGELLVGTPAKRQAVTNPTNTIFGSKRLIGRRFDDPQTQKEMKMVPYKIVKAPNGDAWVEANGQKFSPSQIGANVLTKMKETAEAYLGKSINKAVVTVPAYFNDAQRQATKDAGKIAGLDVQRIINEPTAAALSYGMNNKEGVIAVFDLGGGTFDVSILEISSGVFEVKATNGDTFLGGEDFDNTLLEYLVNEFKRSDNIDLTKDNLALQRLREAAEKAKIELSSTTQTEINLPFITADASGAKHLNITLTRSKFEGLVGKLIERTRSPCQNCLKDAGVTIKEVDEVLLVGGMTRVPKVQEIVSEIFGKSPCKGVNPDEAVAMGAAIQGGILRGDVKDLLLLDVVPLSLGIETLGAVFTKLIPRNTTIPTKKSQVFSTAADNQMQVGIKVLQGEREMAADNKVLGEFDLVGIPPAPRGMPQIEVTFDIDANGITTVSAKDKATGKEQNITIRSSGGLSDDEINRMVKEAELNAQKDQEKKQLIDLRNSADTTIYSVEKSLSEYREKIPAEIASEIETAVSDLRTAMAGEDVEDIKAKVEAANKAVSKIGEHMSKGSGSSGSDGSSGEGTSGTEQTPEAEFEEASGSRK
Test: ATPase assay, [gamma-32P]ATP hydrolysis, TLC and phosphorimager
Format: biochemical
Details: 50 mM Tris-HCl pH 7.4, 50 mM NaCl, 10 mM KCl, 0.1 mM EDTA, 1.5 mM DTT; 2 µM protein; no co-chaperone; labelled compound

## Nc1ncnc2c1ncn2[C@@H]1O[C@H](COP(=O)(O)OP(=O)(O)OP(=O)(O)O)[C@@H](O)[C@H]1O [ATP]
  Km: 49.5 µM
